From ChEMBL document CHEMBL2069209, “Identification of selective tubulin inhibitors as potential anti-trypanosomal agents” (Bioorg Med Chem Lett, 2012) come the findings set out here.

The subject of one data set is Trypanosoma brucei. The experiment in a line: Antitrypanosomal activity against bloodstream form of Trypanosoma brucei 427 after 48 hrs by MTS assay. It is filed as functional, organism-based. Particulars: Trypanosoma brucei, 427, 48 h. In general terms: Tetrazolium assays rely on reduction of a dye to a coloured formazan, in cell work by metabolically active cells.

The nature of data set [1]: Selectivity ratio of IC50 for human SKBR3 cells to IC50 for bloodstream form of Trypanosoma brucei 427. Type of data set: ADME, cell-based, SK-BR-3. Particulars: read-out: Ratio IC50.
Another data set deals with SK-BR-3. Kind of data set: Growth inhibition of human SKBR3 cells after 48 hrs by MTT assay. Type of data set: cell-based. The conditions noted are these: SK-BR-3, 48 h.

A word on the IC50: it is the concentration at which inhibition is half-maximal. Higher therefore signals a need for much substance. In the case of `Cc1ccc(C)c(COc2cc(NC(=O)c3ccc4c(c3)OCO4)ccc2N(C)S(C)(=O)=O)c1`, the IC50 with Trypanosoma brucei was determined as 3220 nM. In data set [1], the selectivity ratio came out at 0.1.

`COc1ccc(CC(=O)Nc2ccc(N(C)S(C)(=O)=O)c(OCc3cc(C)ccc3C)c2)cc1OC` displayed an IC50 with Trypanosoma brucei of 6850 nM. In data set [1], the selectivity ratio stood at 5.

`Cc1ccc(C)c(COc2cc(NC(=O)Cc3ccccc3)ccc2N(C)S(C)(=O)=O)c1` registered an IC50 in the data set with Trypanosoma brucei of 51300 nM. Moreover, the selectivity ratio in data set [1] came out at 2.3.

With `CN(c1ccc(NC(=O)c2ccc(Cl)c([N+](=O)[O-])c2)cc1OCc1ccccc1)S(C)(=O)=O`, the 50% inhibitory concentration (IC50) with Trypanosoma brucei amounted to 2300 nM. For the same compound, the selectivity ratio in data set [1] turned out to be 4.

The compound `CN(c1ccc(NC(=O)c2ccc(C#N)cc2)cc1OCc1ccccc1)S(C)(=O)=O` yielded an IC50 in the data set with Trypanosoma brucei of 2800 nM. In addition, the selectivity ratio in data set [1] was determined as 6.

With `Cc1ccc(C)c(COc2cc(NC(=O)c3ccccc3)ccc2N(C)S(C)(=O)=O)c1`, in the data set with Trypanosoma brucei, the half-inhibitory concentration (IC50) was 6440 nM. Also, in data set [1], the selectivity ratio worked out at 0.6.

Turning to `COc1ccc(S(=O)(=O)Nc2cccnc2Nc2ccc(O)cc2)cc1` [ABT-751], the IC50 with Trypanosoma brucei worked out at 82100 nM; with SK-BR-3 it was 740 nM.

`O=C(Nc1ccncc1)C(=O)c1cn(Cc2ccc(Cl)cc2)c2ccccc12` [INDIBULIN]: the IC50 turned out to be 114000 nM in the data set on Trypanosoma brucei and 33 nM with SK-BR-3.

For `COC(=O)Nc1nc2cc(C(=O)c3cccs3)ccc2[nH]1` [NOCODAZOLE], the IC50 turned out to be 44200 nM in the data set with Trypanosoma brucei and 84 nM in the data set with SK-BR-3.

Consider `CC(=O)O[C@H]1C(=O)[C@@]2(C)[C@H]([C@H](OC(=O)c3ccccc3)[C@]3(O)C[C@H](OC(=O)[C@H](O)[C@@H](NC(=O)c4ccccc4)c4ccccc4)C(C)=C1C3(C)C)[C@]1(OC(C)=O)CO[C@@H]1C[C@@H]2O` [PACLITAXEL], for which, in the data set on Trypanosoma brucei, inhibition was half-maximal at 4.6 nM (IC50).

Take `CC[C@]1(O)C[C@@H]2CN(CCc3c([nH]c4ccccc34)[C@@](C(=O)OC)(c3cc4c(cc3OC)N(C)[C@H]3[C@@](O)(C(=O)OC)[C@H](OC(C)=O)[C@]5(CC)C=CCN6CC[C@]43[C@@H]65)C2)C1` [VINBLASTINE]: the results for the IC50 in the data set with Trypanosoma brucei and with SK-BR-3 were 410 nM and 0.91 nM, respectively.
